From patent publication US10913753B2, “Thienopyridine carboxamides as ubiquitin-specific protease inhibitors” (FORMA Therapeutics, Inc., priority 2016, dated 2021)

Key:
USP28 = USP28 (Homo sapiens (Human), UniProt Q96RU2); assay: Ubiquitin-Rhodamine 110 Assay for USP28 Activity; type: biochemical
Protocol: The assay was performed in a final volume of 20 μL in assay buffer containing 20 mM Tris-HCl (pH 8.0, (1M Tris-HCl, pH 8.0 solution; Corning 46-031-CM)), 2 mM CaCl2 (1M Calcium Chloride solution; Sigma #21114) 2 mM BME (2-Mercaptoethanol; Sigma 63689-25ML -F), 0.01% Prionex (0.22 μM filtered, Sigma #G-0411), and 0.01% Triton X-100. Stock compound solutions were stored at −20° C. as 10 mM in DMSO. Up to 1 month prior to the assay, 2 mM test compounds were pre-dispensed into assay plates (Black, low volume; Corning #3820) and frozen at −20° C. Prestamped assay plates were allowed to come to room temperature on the day of the assay. For the screen, 100 nL of 2 mM was pre-dispensed for a final screening concentration of 10 μM (DMSO(fc)=0.5%). […] Plates were incubated stacked for 90 minutes at room temperature before fluorescence was read on the Envision (Excitation at 485 nm and Emission at 535 nm; Perkin Elmer) or on the PheraSTAR (Excitation at 485 nm and Emission at 535 nm; BMG Labtech).
For follow-up studies, the assay was performed in a final volume of 15 μL in assay buffer containing 20 mM Tris-HCl (pH 8.0, (1M Tris-HCl, pH 8.0 solution; Corning 46-031-CM)), 3 mM BME (2-Mercaptoethanol; Sigma 63689-25ML-F), 0.03% BGG (0.22 μM filtered, Sigma, G7516-25G), and 0.01% Triton X-100 (Sigma, T9284-10L). Nanoliter quantities of either an 8-point or 10-point, 3-fold serial dilution in DMSO was pre-dispensed into assay plates (Perkin Elmer, ProxiPlate-384 F Plus) for a final test concentration of either 25 μM to 11 nM or 25 μM to 1.3 nM, respectively. Enzyme USP28, construct USP28 (USP28-5(1-1077)-TEV-6*His; LifeSensors) concentration and incubation times were optimized for the maximal signal-to -background while maintaining initial velocity conditions at a fixed substrate concentration. The final concentration of the enzyme in the assay was 75 pM. […] 5 μL of 2× enzyme was added to assay plates (pre-stamped with compound) preincubated with USP28 for 30 minutes and then 5 μL of 2× Ub-Rh110 was added to assay plates. Plates were incubated stacked for 20 min at room temperature before 5 μL of stop solution was added (final concentration of 10 mM citric acid (Sigma, 251275-500G)). Fluorescence was read on the Envision (Excitation at 485 nm and Emission at 535 nm; Perkin Elmer) or on the PheraSTAR (Excitation at 485 nm and Emission at 535 nm; BMG Labtech).
(§1) For both the USP28 and USP25 assay formats, data were reported as percent inhibition compared with control wells based on the following equation: % inh=1-((FLU-AveLow)/(AveHigh−AveLow)) where FLU=measured Fluorescence, AveLow=average Fluorescence of no enzyme control (n=16), and AveHigh=average Fluorescence of DMSO control (n=16). IC50 values were determined by curve fitting of the standard 4 parameter logistic fitting algorithm included in the Activity Base software package: IDBS XE Designer Model205. Data is fitted using the Levenburg Marquardt algorithm.

USP25 = USP25 (Homo sapiens (Human), UniProt Q9UHP3); assay: Ubiquitin-Rhodamine 110 Assay for USP25 Activity; type: biochemical
Protocol: The assay was performed in a final volume of 9 μL in assay buffer containing 20 mM Tris-HCl (pH 8.0, (1M Tris-HC1, pH 8.0 solution; Corning 46-031-CM)), 3 mM BME (2-Mercaptoethanol; Sigma 63689-25ML-F), 0.03% BGG (0.22 μM filtered, Sigma, G7516-25G), and 0.01% Triton X-100 (Sigma, T9284-10L). Nanoliter quantities of 10-point, 3-fold serial dilution in DMSO was pre-dispensed into 1536 assay plates (Corning, #3724BC) for a final test concentration of 25 μM to 1.3 nM, top to lowest dose, respectively. Enzyme USP25, construct USP25-His6, (Boston Biochem E-546). Concentration and incubation times were optimized for the maximal signal-to-background while maintaining initial velocity conditions at a fixed substrate concentration. The final concentration of the enzyme in the assay was 75 pM. […] 3 μL of 2× enzyme was added to assay plates (pre-stamped with compound) preincubated with […] for 30 minutes and then 3 μL of 2× Ub-Rh110 was added to assay plates. Plates were incubated for 45 minutes at room temperature before addition of 3 μL of stop solution (final concentration of 10 mM citric acid (Sigma, 251275-500G)). Fluorescence was read on the Envision (Excitation at 485 nm and Emission at 535 nm; Perkin Elmer) or on the PheraSTAR (Excitation at 485 nm and Emission at 535 nm; BMG Labtech).
as §1

USP28, sequence (Q96RU2 whole entry): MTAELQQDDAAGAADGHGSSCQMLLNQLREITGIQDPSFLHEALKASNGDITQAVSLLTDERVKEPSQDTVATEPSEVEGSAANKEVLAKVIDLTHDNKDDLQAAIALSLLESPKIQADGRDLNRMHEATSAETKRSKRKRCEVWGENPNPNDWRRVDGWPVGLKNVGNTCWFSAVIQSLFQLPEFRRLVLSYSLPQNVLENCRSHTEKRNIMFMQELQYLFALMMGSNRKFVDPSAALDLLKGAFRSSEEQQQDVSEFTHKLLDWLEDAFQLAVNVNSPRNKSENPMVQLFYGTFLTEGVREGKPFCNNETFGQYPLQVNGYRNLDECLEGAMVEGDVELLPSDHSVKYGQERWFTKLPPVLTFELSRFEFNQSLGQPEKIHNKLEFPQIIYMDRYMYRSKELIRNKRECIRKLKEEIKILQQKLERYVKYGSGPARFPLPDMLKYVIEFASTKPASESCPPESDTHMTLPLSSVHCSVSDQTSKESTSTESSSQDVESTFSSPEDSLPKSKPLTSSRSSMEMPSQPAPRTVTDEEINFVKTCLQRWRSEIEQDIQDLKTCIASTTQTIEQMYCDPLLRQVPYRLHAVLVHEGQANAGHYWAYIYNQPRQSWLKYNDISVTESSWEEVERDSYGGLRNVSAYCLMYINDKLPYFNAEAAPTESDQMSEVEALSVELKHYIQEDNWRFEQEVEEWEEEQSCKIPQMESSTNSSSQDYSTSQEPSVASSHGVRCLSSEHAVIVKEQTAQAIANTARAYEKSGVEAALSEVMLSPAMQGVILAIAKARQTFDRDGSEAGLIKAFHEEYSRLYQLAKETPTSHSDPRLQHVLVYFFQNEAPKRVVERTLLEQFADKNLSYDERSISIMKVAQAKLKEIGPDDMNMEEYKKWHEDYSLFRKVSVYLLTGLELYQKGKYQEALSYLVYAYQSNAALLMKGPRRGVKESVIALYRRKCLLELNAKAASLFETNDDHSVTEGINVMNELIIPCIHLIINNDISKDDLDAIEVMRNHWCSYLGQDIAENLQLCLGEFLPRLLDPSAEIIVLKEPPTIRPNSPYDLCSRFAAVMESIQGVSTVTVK
USP25, sequence (Q9UHP3 whole entry): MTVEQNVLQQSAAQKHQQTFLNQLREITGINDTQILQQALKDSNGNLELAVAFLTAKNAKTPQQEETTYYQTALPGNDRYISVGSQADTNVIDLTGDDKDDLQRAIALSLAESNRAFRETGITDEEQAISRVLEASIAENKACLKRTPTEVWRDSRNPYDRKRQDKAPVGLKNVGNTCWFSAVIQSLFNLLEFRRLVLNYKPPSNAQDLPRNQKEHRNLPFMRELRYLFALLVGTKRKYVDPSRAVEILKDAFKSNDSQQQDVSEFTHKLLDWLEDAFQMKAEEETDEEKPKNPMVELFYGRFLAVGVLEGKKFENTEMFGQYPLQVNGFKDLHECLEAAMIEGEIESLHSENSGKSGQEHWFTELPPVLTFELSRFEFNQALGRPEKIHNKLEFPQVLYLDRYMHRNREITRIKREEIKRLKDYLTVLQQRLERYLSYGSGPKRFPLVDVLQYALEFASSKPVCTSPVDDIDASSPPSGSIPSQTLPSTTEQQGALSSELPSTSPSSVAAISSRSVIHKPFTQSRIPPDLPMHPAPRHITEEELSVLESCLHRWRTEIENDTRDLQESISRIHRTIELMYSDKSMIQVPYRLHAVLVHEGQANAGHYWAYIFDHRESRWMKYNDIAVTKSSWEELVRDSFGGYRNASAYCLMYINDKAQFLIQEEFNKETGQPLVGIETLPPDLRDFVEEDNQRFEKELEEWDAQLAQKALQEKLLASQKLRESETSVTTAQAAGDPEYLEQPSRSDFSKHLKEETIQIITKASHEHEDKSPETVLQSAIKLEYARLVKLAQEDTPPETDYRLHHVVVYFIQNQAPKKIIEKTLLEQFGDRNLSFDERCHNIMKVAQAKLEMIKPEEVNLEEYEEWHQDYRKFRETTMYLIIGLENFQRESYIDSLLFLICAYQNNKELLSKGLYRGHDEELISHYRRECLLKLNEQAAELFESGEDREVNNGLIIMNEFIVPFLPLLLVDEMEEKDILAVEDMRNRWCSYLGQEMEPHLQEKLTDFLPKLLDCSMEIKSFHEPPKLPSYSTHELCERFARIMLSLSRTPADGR

`C[C@@H](CNC(=O)c1sc2ncc(F)cc2c1N)c1cc(F)c(N2CC3CCC(C2)N3)cc1F` (single isomer, unassigned) [Example I-102] showed an IC50 (USP28) of 2 to 10 µM and an IC50 (USP25) of 2 to 10 µM.

With `CN(C)c1ccc2c(N)c(C(=O)NCCc3ccc(N4CCNCC4)cc3)sc2n1` [Example I-186, 3-Amino-6-(dimethylamino)-N-(4-(piperazin-1-yl)phenethyl)thieno[2,3-b]pyridine-2-carboxamide] the IC50 (USP28) was 2 to 10 µM and the IC50 (USP25) was 10 to 25 µM.

In the case of `Cc1nc2sc(C(=O)NC[C@@H](C)c3cc(F)c(N4CCNCC4)cc3F)c(N)c2cc1F` [Example I-99], the IC50 (USP28) is reported as 2 to 10 µM and the IC50 (USP25) is reported as 2 to 10 µM.

Compound `Cc1ccc2c(N)c(C(=O)NCCc3ccc(N4CCNCC4)c(OC(F)F)c3)sc2n1` [Example I-73, 3-Amino-N-(3-(difluoromethoxy)-4-(piperazin-1-yl)phenethyl)-6-methylthieno[2,3-b]pyridine-2-carboxamide] has an IC50 (USP28) of 0.2 to 2 µM and an IC50 (USP25) of 0.2 to 2 µM.

With `Cc1ccc2c(N)c(C(=O)NCCc3ccc(N4CCNCC4)c(Cl)c3)sc2n1` [Example I-77] the IC50 (USP28) was 0.2 to 2 µM and the IC50 (USP25) was 0.2 to 2 µM.

`Cc1ccc2c(N)c(C(=O)NC[C@@H](C)c3ccc(N4CC5CCC(C4)N5)cc3F)sc2n1` (single isomer, unassigned) [Example I-103] showed an IC50 (USP28) of 0.2 to 2 µM and an IC50 (USP25) of 0.2 to 2 µM.

Compound `Cc1ccc2c(N)c(C(=O)NCCc3ccc4c(c3)CNCC4)sc2n1` [Example I-90] has an IC50 (USP28) of 0.2 to 2 µM and an IC50 (USP25) of 0.2 to 2 µM.

With `CN[C@@H]1CN(c2cc(F)c(CCNC(=O)c3sc4nc(C)ccc4c3N)cc2F)C[C@H]1F` (single isomer, unassigned) [Example I-213] the IC50 (USP28) was 0.2 to 2 µM and the IC50 (USP25) was 0.2 to 2 µM.

With `CCc1cc(CCNC(=O)c2sc3nc(C)ccc3c2N)ccc1N1CC2CCC(C1)N2` [Compound I-44] the IC50 (USP28) was less than 0.2 µM and the IC50 (USP25) was less than 0.2 µM.

Compound `Cc1ccc2c(N)c(C(=O)NCCc3cc(F)c(N4C[C@@H]5CCN[C@@H]5C4)cc3F)sc2n1` [Example I-95] has an IC50 (USP28) of less than 0.2 µM and an IC50 (USP25) of 0.2 to 2 µM.

Work on `Cc1nc2sc(C(=O)NC[C@@H](C)c3ccc(N4CC5CCC(C4)N5)c(F)c3)c(N)c2cc1F` (single isomer, unassigned) [Example I-107] yielded an IC50 (USP28) of 0.2 to 2 µM and an IC50 (USP25) of 10 to 25 µM.

Compound `Cc1cc(Cl)nc2sc(C(=O)NCCc3ccc(N4CCNCC4)cc3)c(N)c12` [Compound I-56] has an IC50 (USP28) of 0.2 to 2 µM and an IC50 (USP25) of 0.2 to 2 µM.

For `Cc1nc2sc(C(=O)NC[C@@H](C)c3cc(F)c(N4CC5CCC(C4)N5)cc3F)c(N)c2cc1F` (single isomer, unassigned) [Example I-111], the IC50 (USP28) was less than 0.2 µM and the IC50 (USP25) was 0.2 to 2 µM.

`C[C@@H](O)c1ccc2c(N)c(C(=O)NCCc3ccc(N4CCNCC4)cc3)sc2n1` (single isomer, unassigned) [Example I-222] showed an IC50 (USP28) of 0.2 to 2 µM and an IC50 (USP25) of 0.2 to 2 µM.

`COc1cc(C)nc2sc(C(=O)NCCc3ccc(N4CCNCC4)cc3)c(N)c12` [Compound I-24] gave an IC50 (USP28) of 2 to 10 µM and an IC50 (USP25) of 10 to 25 µM.

For `Cc1ccc2c(N)c(C(=O)NCCc3cc(F)c(N4CCNCC4)cc3F)sc2n1` [Example I-11, 3-Amino-N-(2,5-difluoro-4-(piperazin-1-yl)phenethyl)-6-methylthieno[2,3-b]pyridine-2-carboxamide], the IC50 (USP28) was 0.2 to 2 µM and the IC50 (USP25) was 0.2 to 2 µM.

In the case of `Cc1ccc2c(N)c(C(=O)NCCc3ccc(N4CCN(CC5CCO5)CC4)cc3)sc2n1` (centres unmarked) [Compound I-25], the IC50 (USP28) is reported as 0.2 to 2 µM and the IC50 (USP25) is reported as 2 to 10 µM.

In the case of `Nc1c(C(=O)NCCc2ccc(N3CCNCC3)cc2)sc2ncc3c(c12)CCC3` [Compound I-28], the IC50 (USP28) is reported as 2 to 10 µM and the IC50 (USP25) is reported as 2 to 10 µM.

Work on `Cc1ccc2c(N)c(C(=O)NCCc3ccc(N4CC[C@@H]5NCC[C@@H]54)cc3)sc2n1` (single isomer, unassigned) [Example I-93] yielded an IC50 (USP28) of less than 0.2 µM and an IC50 (USP25) of less than 0.2 µM.

In the case of `Cc1ccc2c(N)c(C(=O)NCCc3ccc(N4CCNCC4)cc3C)sc2n1` [Example I-89], the IC50 (USP28) is reported as less than 0.2 µM and the IC50 (USP25) is reported as 0.2 to 2 µM.

For `Cc1ccc2c(N)c(C(=O)NCCc3ccc(N4CCN[C@@H](C)C4)cc3)sc2n1` [Example I-121, (S)-3-amino-6-methyl-N-(4-(3-methylpiperazin-1-yl)phenethyl)thieno[2,3-b]pyridine-2-carboxamide], the IC50 (USP28) was 0.2 to 2 µM and the IC50 (USP25) was 0.2 to 2 µM.

`CNC1CN(c2cc(F)c(CCNC(=O)c3sc4nc(C)ccc4c3N)cc2F)C1` [Example I-199, 3-Amino-N-(2,5-difluoro-4-(3-(methylamino)azetidin-1-yl)phenethyl) -6-methylthieno[2,3-b]pyridine-2-carboxamide] was tested, and the IC50 (USP28) was 0.2 to 2 µM and the IC50 (USP25) was 0.2 to 2 µM.

In the case of `CNc1ccc2c(N)c(C(=O)NCCc3ccc(C4CCNCC4)cc3)sc2n1` [Example I-196], the IC50 (USP28) is reported as 0.2 to 2 µM and the IC50 (USP25) is reported as 0.2 to 2 µM.

Compound `CCOc1cc(CCNC(=O)c2sc3nc(C)ccc3c2N)ccc1N1CCNCC1` [Example I-83] has an IC50 (USP28) of 0.2 to 2 µM and an IC50 (USP25) of 0.2 to 2 µM.

`Cc1ccc2c(N)c(C(=O)NCCc3cc(F)c(N4C[C@@H]5C[C@H]4CN5)cc3F)sc2n1` [Compound I-52] gave an IC50 (USP28) of less than 0.2 µM and an IC50 (USP25) of 0.2 to 2 µM.

Work on `Cc1ccc2c(N)c(C(=O)NCCc3ccc(N4CC5CCC(C4)N5)cc3)sc2n1` [Compound I-15] yielded an IC50 (USP28) of less than 0.2 µM and an IC50 (USP25) of 0.2 to 2 µM.

For `Cc1ccc2c(N)c(C(=O)NCCc3ccc(N4CCN[C@@H](CO)C4)cc3)sc2n1` [Example I-87], the IC50 (USP28) was less than 0.2 µM and the IC50 (USP25) was 0.2 to 2 µM.

Work on `Cc1ccc2c(N)c(C(=O)NCCc3ccc(N4CCNCC4)c(-c4cnn(C(F)F)c4)c3)sc2n1` [Example I-152, 3-Amino-N-(3-(1-(difluoromethyl)-1H-pyrazol-4-yl)-4-(piperazin-1-yl)phenethyl)-6-methylthieno[2,3-b]pyridine-2-carboxamide] yielded an IC50 (USP28) of 2 to 10 µM and an IC50 (USP25) of 10 to 25 µM.

For `CN[C@@H]1CN(c2cc(F)c(CCNC(=O)c3sc4nc(C)ccc4c3N)cc2F)C[C@@H]1F` (single isomer, unassigned) [Example I-211], the IC50 (USP28) was 0.2 to 2 µM and the IC50 (USP25) was 2 to 10 µM.

`Cc1ccc2c(N)c(C(=O)NCCc3ccc(-n4ncc5c4CNC5)cc3F)sc2n1` [Compound I-41] was tested, and the IC50 (USP28) was less than 0.2 µM and the IC50 (USP25) was 0.2 to 2 µM.

`Cc1nc2sc(C(=O)NCCc3cc(F)c(N4CC5CCC(C4)N5)cc3F)c(N)c2cc1F` [Compound I-72] showed an IC50 (USP28) of less than 0.2 µM and an IC50 (USP25) of 0.2 to 2 µM.

`Cc1ccc2c(N)c(C(=O)N[C@H]3C[C@@H](c4ccc(N5CCNCC5)cc4)C3)sc2n1` [Example I-91, cis-3-Amino-6-methyl-N-(3-(4-(piperazin-1-yl)phenyl)cyclobutyl)thieno [2,3-b]pyridine-2-carboxamide] was tested, and the IC50 (USP28) was 0.2 to 2 µM and the IC50 (USP25) was 0.2 to 2 µM.

Work on `Cc1ccc2c(N)c(C(=O)NCCc3ccc(C4CCNCC4)cc3)sc2n1` [Compound I-13] yielded an IC50 (USP28) of less than 0.2 µM and an IC50 (USP25) of 0.2 to 2 µM.

In the case of `Cc1nc2sc(C(=O)NCCc3ccc(N4CCNCC4)cc3)c(N)c2cc1C1CC1` [Example I-197, 3-Amino-5-cyclopropyl-6-methyl-N-(4-(piperazin-1-yl)phenethyl)thieno[2,3-b]pyridine-2-carboxamide], the IC50 (USP28) is reported as 2 to 10 µM and the IC50 (USP25) is reported as 10 to 25 µM.
